Measurements published in paper PMC6271858, “Identification of Natural Compound Carnosol as a Novel TRPA1 Receptor Agonist” (Molecules, 2014).
Entries after “also recorded” stand apart in the source; their conditions may differ. Like-named read-outs stand apart in the source and are kept apart here. Blank lines part the entries; values can stand above or below the compound they belong to.

Experiments:
human TRPA1 = human TRPA1 (Homo sapiens, UniProt O75762); assay: Calcium mobilization agonist assay in HEK293/TRPA1 cells; assay type: cell-based; details: for EC80 value: agonist concentration used to evoke the antagonist assay
human TRPA1, sequence (O75762 whole entry): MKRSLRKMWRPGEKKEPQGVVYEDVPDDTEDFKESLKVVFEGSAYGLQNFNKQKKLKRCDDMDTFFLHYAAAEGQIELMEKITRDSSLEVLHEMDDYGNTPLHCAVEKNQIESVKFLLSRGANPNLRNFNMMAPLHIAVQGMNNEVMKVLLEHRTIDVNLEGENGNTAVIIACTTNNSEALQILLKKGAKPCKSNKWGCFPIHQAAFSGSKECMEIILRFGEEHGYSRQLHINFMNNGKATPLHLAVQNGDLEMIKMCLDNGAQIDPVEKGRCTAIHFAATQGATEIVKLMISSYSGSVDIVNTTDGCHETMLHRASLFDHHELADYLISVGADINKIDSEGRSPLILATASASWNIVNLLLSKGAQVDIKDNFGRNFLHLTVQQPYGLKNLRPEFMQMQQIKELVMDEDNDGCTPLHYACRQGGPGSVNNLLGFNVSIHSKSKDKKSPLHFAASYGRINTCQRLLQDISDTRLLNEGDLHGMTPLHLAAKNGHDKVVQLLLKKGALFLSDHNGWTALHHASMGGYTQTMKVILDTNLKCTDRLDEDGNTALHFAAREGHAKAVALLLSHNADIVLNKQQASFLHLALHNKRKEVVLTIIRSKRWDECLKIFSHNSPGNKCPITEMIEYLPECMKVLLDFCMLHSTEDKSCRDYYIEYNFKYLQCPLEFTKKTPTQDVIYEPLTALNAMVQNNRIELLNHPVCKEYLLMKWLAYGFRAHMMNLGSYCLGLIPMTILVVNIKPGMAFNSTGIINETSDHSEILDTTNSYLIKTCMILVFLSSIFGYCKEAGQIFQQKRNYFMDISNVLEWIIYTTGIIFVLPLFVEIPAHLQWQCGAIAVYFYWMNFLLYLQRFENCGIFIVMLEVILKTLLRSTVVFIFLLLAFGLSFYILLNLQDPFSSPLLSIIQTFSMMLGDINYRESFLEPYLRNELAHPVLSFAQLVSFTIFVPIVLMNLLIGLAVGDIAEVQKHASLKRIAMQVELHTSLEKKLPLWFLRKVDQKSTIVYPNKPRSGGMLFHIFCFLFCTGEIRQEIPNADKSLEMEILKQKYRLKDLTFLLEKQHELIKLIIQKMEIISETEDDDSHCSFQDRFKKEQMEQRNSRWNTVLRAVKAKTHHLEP
Description: HEK293/TRPA1 cells were seeded at a density of 3.5 × 10^4 per well into 96-well clear-bottom black plates coated with matrigel and incubated in 5% CO2 at 37 °C overnight. On the day of assay, the growth medium was replaced by 100 µL loading buffer containing a final concentration of 4 μM Ca^2+-sensitive dye Fluo-4 AM and 2 mM acid red 1 in HBSS. The plate was then incubated at 37 °C in dark for 30 min before calcium signal read out. For antagonists study, 80 µL loading buffer was added into each well and 20 µL HBSS containing tested compound was added 10 min prior to calcium-flux measurement.
Cells were transferred to a Flexstation II (Molecular Devices) for experimentation. Basal fluorescence was recorded for 16 s before agonist application. The integrated Flexstation II fluidics system added 25 µL compound (5× solution) from the agonist compound plate to the assay plate containing 100 µL loading buffer solution. Relative fluorescence units (RFU) were read by FlexStation II at 37 °C with an excitation wavelength of 485 nm and an emission wavelength of 525 nm. The fluorescence intensity was read every 1.52 s for 80 s.
Ninety µM CA and 0.25% DMSO were used as the positive and negative control respectively during primary screening of TRPA1 agonist. Hits above the cutoff value (50%) were picked for retesting, percentage of increased calcium signal was calculated as following equation: (2) Activity%=RFUcompound−RFUnegative/RFUpositive−RFUnegative×100

HEK293 host cells = assay: Compound specificity assay, calcium influx in HEK293 host cells; assay type: cell-based, human; details: compared with 0.25% DMSO group; positive control 5 μM ATP
Description: To observe whether the identified compounds induce calcium influx in HEK293 host cells, the cells were treated with various concentrations of tested compounds. Meanwhile, 5 μM ATP and 0.25% DMSO were used as the positive and negative control, respectively. The regulatory activity of tested samples was defined as follows: (3) Activity%=RFUcompound/RFUpositive×100

TRPV3 = target: T1, TRPV3 (Homo sapiens, UniProt Q8NET8); assay: Compound selectivity calcium mobilization assay in HEK293/TRPV3 cells; assay type: cell-based; details: series of concentrations
T1 sequence (Q8NET8 1-790): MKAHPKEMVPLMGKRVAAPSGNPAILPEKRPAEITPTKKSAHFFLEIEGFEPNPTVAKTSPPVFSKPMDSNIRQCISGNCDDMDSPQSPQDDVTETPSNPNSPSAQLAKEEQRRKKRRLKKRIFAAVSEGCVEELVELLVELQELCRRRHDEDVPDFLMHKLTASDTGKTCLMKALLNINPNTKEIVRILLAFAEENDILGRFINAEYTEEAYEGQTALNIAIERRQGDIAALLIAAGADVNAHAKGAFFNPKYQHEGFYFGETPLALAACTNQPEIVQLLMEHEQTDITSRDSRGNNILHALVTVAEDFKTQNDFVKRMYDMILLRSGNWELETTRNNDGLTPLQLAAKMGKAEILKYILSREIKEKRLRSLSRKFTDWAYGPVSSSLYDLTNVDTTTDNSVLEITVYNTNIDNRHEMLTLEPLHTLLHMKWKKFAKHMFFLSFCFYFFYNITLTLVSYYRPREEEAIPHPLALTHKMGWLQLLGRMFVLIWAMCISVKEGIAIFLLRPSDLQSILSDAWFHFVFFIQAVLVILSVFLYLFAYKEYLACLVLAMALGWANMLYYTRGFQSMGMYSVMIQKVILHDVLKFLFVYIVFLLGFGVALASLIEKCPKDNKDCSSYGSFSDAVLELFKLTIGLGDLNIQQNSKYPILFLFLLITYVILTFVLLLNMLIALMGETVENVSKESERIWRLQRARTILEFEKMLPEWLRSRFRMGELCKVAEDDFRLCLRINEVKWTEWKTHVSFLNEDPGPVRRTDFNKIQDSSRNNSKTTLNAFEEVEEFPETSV
Description: (§1) All HEK293 cell lines used in this study were routinely maintained in DMEM containing 10% FBS, 100 U/mL penicillin, and 100 μg/mL streptomycin in a humidified atmosphere of 5% CO2 at 37 °C. HEK293/TRPA1, HEK293/TRPM8 and HEK293/TRPV3 cells were incubated with complete culture medium along with 50 μg/mL hygromycin B.
(§2) To study the specificity of the action target of identified compounds, the activating effect on TRPM8 and TRPV3 was tested. HEK293 cell lines stably expressing TRPM8 and TRPV3 receptors were separately stimulated by a serious concentrations of identified compounds using calcium mobilization assay as described above.

HEK293/TRPA1 cells = assay: Compound cytotoxicity assay (CellTiter-Glo, luciferase coupled ATP quantitation); assay type: cell-based, human; details: 2 h incubation, compared to the control group
Description: HEK293/TRPA1 cells were seeded at 3.5 × 10^4 per well into 96-well clear-bottom black plates and incubated in 5% CO2 at 37 °C overnight. Different concentrations of the compound were added into the 96-well plates and incubated in 5% CO2 at 37 °C for 2 h. Luminescence was read by Envision 2100 multilabel reader to detect cells’ viability following incubation with CellTiter-Glo reagent for 10 min.

TRPM8 = TRPM8 (Homo sapiens, UniProt Q7Z2W7); assay: Compound selectivity calcium mobilization assay in HEK293/TRPM8 cells; assay type: cell-based
TRPM8, sequence (Q7Z2W7 whole entry): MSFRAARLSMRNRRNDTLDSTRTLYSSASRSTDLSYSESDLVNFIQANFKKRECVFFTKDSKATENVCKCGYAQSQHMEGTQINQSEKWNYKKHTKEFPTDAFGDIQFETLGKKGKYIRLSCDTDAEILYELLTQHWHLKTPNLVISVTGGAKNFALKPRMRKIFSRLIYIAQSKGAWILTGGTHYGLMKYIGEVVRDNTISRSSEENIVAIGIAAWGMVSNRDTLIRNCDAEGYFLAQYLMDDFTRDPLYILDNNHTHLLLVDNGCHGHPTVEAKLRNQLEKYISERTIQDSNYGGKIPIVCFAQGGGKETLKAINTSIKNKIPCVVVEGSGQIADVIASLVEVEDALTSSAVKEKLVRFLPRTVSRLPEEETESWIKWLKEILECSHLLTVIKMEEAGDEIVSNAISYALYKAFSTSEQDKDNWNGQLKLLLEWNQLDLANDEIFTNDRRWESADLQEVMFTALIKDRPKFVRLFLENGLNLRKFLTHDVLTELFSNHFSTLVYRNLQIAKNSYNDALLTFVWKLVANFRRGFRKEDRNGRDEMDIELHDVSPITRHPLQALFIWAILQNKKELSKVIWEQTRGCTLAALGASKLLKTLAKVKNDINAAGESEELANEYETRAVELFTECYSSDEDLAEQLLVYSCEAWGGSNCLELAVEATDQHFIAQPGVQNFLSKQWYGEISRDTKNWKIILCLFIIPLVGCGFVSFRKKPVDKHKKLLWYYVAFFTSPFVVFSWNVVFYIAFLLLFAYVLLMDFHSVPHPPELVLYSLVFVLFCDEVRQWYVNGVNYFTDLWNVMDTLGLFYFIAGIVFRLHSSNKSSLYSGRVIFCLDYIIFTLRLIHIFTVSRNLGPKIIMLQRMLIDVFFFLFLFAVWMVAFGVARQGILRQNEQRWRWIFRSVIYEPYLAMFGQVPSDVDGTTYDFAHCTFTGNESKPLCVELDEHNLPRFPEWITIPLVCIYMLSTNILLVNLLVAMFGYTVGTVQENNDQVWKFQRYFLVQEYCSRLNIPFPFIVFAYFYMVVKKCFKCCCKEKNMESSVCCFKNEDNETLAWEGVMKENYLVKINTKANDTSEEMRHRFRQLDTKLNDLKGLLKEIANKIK
Description: as §1, with “HEK 293 cell lines stably expressing human TRPA1, TRPM8 and TRPV3 channels, respectively, were established by HD Bioscience Co. Ltd (SH, China) according to the cell line generation procedure in published articles of our laboratory. All” for “All”
as §2

Compound: O=C/C=C/c1ccccc1 [CA, cinnamaldehyde, reference compound]
- EC50 (human TRPA1): 31.5 µM
- EC80 value (human TRPA1; HEK293/TRPA1 cells): 90 µM

Compound: CC(C)c1cc2c(c(O)c1O)[C@@]1(C(=O)O)CCCC(C)(C)[C@@H]1CC2 [carnosic acid, Carnosic acid]
- Calcium signal in HEK293 host cells (HEK293 host cells): acted on HEK293 host cells
- Calcium signal in HEK293/TRPA1 cell line (human TRPA1; at 90 µM): caused calcium signal

Compound: CC(C)c1cc2c(c(O)c1O)[C@@]13CCCC(C)(C)[C@@H]1C[C@@H]2OC3=O [carnosol, Carnosol]
- Stimulation signal in HEK/TRPV3 cell line (TRPV3): no stimulation signal
- Calcium signal in HEK293 host cells (HEK293 host cells): no significant difference
- Cytotoxicity on HEK293/TRPA1 cells (HEK293/TRPA1 cells): no significant cytotoxicity
- Stimulation signal in HEK/TRPM8 cell line (TRPM8; series of concentrations, calcium mobilization): no stimulation signal
- Calcium signal in primary screening (human TRPA1; 10 μM, HEK293/TRPA1 cells, positive control 90 µM CA, negative control 0.25% DMSO): showed significant difference compared with the negative control; also recorded: comparable to the positive control
- EC80 value (human TRPA1; HEK293/TRPA1 cells): 30 µM
- EC50 (human TRPA1; HEK293/TRPA1 cells, calcium mobilization, agonist concentration-response, read-out: EC50): 12.5 µM

Continued, values first:

- EC50 (TRPM8; HEK293/TRPM8 cells, calcium response (data not shown)): 0.17 µM
Compound: O=C1NC(c2cccc([N+](=O)[O-])c2)=CCN1c1ccccc1O [icilin, Icilin, reference compound]

- Calcium signal in HEK293/TRPA1 cell line (human TRPA1; up to 90 µM): no significant calcium signal
Compound: C[C@H]1[C@H](C)CC[C@]2(C(=O)O)CC[C@]3(C)C(=CC[C@@H]4[C@@]5(C)CC[C@H](O)C(C)(C)[C@@H]5CC[C@]43C)[C@H]12 [ursolic acid, Ursolic acid]
